Results published in publication PMC12040169 (PLOS Biology, 2025).

Assay: in vitro
Details: human, hela cells, % viability

Row | Compound | viability at 28.5 h, 10 µM | viability at 28.5 h, 10 µM (bulk resorufin, single well)
1 | Cc1ccc(CC(=O)N2CC(=O)Nc3ccccc32)cc1 [CBK287670] | 86.2% | –
2 | CCOC(=O)C1(C2CCCCC2)CCN(C(=O)c2cc(C)[nH]n2)CC1 [CBK137100] | 96.2% | –
3 | O=C(O)/C=C/c1cn([C@H]2C[C@@H](O)[C@@H](CO)O2)c(=O)[nH]c1=O [CBK201174] | 92.9% | –
4 | NC(=O)c1c(NC(=O)c2ccc(COc3cc(Cl)ccc3Cl)o2)sc2c1CCCC2 [CBK265775] | 85.4% | –
5 | O=C(Cc1c[nH]c2ccccc12)N1CCC2(CCN(C(=O)CC3CCCCC3)C2)C1 (centres unmarked) [CBK131422] | 88.3% | –
6 | CCCN(CC1CCCO1)C(=O)c1cc2ccc(OC)cc2n1C (centres unmarked) [CBK282139] | 92.8% | –
7 | COc1ccc2[nH]c(/C(C#N)=C\c3ccc(-c4cc(C(=O)O)ccc4Cl)o3)nc2c1 [CBK268370] | 90.4% | –
8 | O=C(NCc1ccc(Cl)c(Cl)c1)N1CCN(c2cc(C(F)(F)F)ccn2)CC1 [CBK156434] | 94.3% | –
9 | CCOc1ccc(CNCCc2ccc(S(N)(=O)=O)cc2)cc1 [CBK268090C] | 94.6% | –
10 | O=S(=O)(Nc1cc(C(F)(F)F)ccc1N1CCOCC1)c1ccc(-c2ccccn2)s1 [CBK062557] | 79.5% | –
11 | CC(C)(C)c1nnc(NCc2ccccc2)s1 [CBK074922] | 95.7% | –
12 | Cc1nc(N2CCOCC2)[nH]c(=O)c1CCC(=O)Nc1ccccc1F [CBK305003] | 97.7% | –
13 | CS(=O)(=O)N(Cc1ccccc1)c1ccc(C(=O)N2CCN(Cc3ccccc3)CC2)cc1 [CBK264134] | 114% | –
14 | O=C(NOCc1ccccc1)c1nn(-c2ncccn2)c2ccccc12 [CBK048503] | 93.1% | –
15 | COc1cc(C#N)ccc1Oc1ccc([N+](=O)[O-])cn1 [CBK002569] | 108% | –
16 | O=C1CCN(Cc2ccccc2)CCN1C(=O)c1cccs1 [CBK284828] | 88.8% | –
17 | Cn1c(=O)oc2ccc(C(=O)CSc3nnnn3-c3ccccc3)cc21 [CBK300488] | 90.1% | –
18 | COc1ccc(NC(=O)C2C3CCC(C3)C2C(=O)O)cc1OC (centres unmarked) [CBK263684] | 95.3% | –
19 | O=C(Nc1ccc(F)cc1)c1ccccc1NS(=O)(=O)c1ccc(Br)cc1 [CBK045438] | 100% | –
20 | O=C(c1cccs1)N1C[C@H](c2ccc(F)cc2)[C@H]2CN(Cc3ccc(F)cc3)CC[C@H]21 [CBK285545] | 91.3% | –
21 | CCCn1c(=O)c(Cc2ccccc2)c(O)c2ccccc21 [CBK291175] | 89.3% | –
22 | COc1coc(CN2C(=O)COc3cccnc32)cc1=O [CBK307126] | 96.7% | –
23 | C[C@H](NC(=O)N1CCN(C(=O)c2c[nH]c3ccccc23)CC1)C(=O)O [CBK286581] | 84.5% | –

Row | Compound | viability at 28.5 h, 10 µM | viability at 28.5 h, 10 µM (bulk resorufin, single well)
24 | O=C(Nc1cc(Cl)ccc1C(=O)O)c1ccc2c(c1)C(=O)N(Cc1cccnc1)C2=O [CBK266455] | 89.9% | –
25 | Cc1cc(C)n(CCC(=O)NCC(c2ccccn2)N2CCOCC2)n1 (centres unmarked) [CBK307396] | 105% | –
26 | Cc1ccc2[nH]c([C@H]3CCN(C(=O)NC(C)C)C3)nc2c1 [CBK289375] | 90.8% | –
27 | O=S(=O)(c1ccc(C(F)(F)F)cc1Cl)N1CCN(Cc2c[nH]nc2-c2cccs2)CC1 [CBK062864] | 108% | –
28 | CCn1cc(NS(=O)(=O)c2ccc(N3CCCC3=O)cc2)cn1 [CBK305922] | 85.3% | –
29 | Cc1ccc(OC(C)C(=O)NCc2ccccc2)cc1 (centres unmarked) [CBK269016] | 101% | –
30 | Cc1ccc(OCc2occc2C(=O)N2CCCCC(N)C2)cc1 (centres unmarked) [CBK306840] | 107% | –
31 | c1ccc(-c2nc(C3CC3)n3ccccc23)cc1 [CBK149257] | 94.1% | –
32 | CNC(=O)c1ccc(-c2ccc(CNC(=O)C3(c4cccc(F)c4)CCCC3)cc2)nc1C [CBK286013] | 105% | –
33 | COc1cc(CNCc2cccs2)ccc1OCC(N)=O [CBK267620C] | 95.7% | –
34 | CC1(C)CC(=O)c2sc(NS(=O)(=O)c3sc(Cl)cc3Br)nc2C1 [CBK200029] | 109% | –
35 | CC1CN(c2cc(CO)c(F)cn2)CC2(CCOC2C)O1 (centres unmarked) [CBK304754] | 101% | –
36 | O=C(Cc1ccsc1)N1CCn2nc(C(O)Cc3ccccc3)cc2C1 (centres unmarked) [CBK306547] | 95.9% | –
37 | CCOC(=O)CSc1nc2ccccc2nc1C(F)(F)F [CBK107200] | 92.8% | –
38 | Cc1cc(=O)c2ccccc2n1CC(=O)N1CCC2(CCO2)CC1 [CBK306809] | 88.5% | –
39 | O=C(Nc1cccnc1)N1CCN(c2ccc(F)cc2)CC1 [CBK156427] | 92.7% | –
40 | CCOC(=O)CC(=O)CSc1nc(C)cc(-c2cccnc2)c1C#N [CBK267460] | 94% | –
41 | NCCCC(=O)OC1N=C(c2ccccc2Cl)c2cc(Br)ccc2NC1=O (centres unmarked) [CBK264689B] | – | 104%
42 | COc1ccccc1CCNCc1ccc(Br)cc1 [CBK015036G] | – | 96.2%
43 | Cc1cc(COc2ccnc(N3CCCN(CC(N)=O)CC3)n2)no1 [CBK084036] | 85.9% | –
44 | Cn1c(=O)c2[nH]c(-c3ccncc3)nc2n(C)c1=O [CBK287902] | 92.5% | –
45 | Cc1nc2ccc(C(=O)NC3=NC(=O)CS3)cn2c1N(C)Cc1cccs1 [CBK146110] | 86.3% | –
46 | COc1ccccc1C(=O)N1CCC(Cc2ccc(-c3cccc(C)c3)cc2)(C(N)=O)CC1 [CBK285792] | 89.8% | –

Row | Compound | viability at 28.5 h, 10 µM | viability at 28.5 h, 10 µM (bulk resorufin, single well)
47 | Oc1ccccc1Nc1nc(NC2CCCC2)c2ccccc2n1 [CBK268402C] | 84.8% | –
48 | O=C(c1[nH]c2ccccc2c1NS(=O)(=O)Cc1ccccc1)N1CCOCC1 [CBK050067] | 99.5% | –
49 | O=C(O)c1cccc(Cn2c(C3CC3)n[nH]c2=S)c1 [CBK288401] | 87.1% | –
50 | C[C@@H](c1ccccc1)N1C(=O)[C@@H]2CN(S(=O)(=O)c3cccs3)CCN2C1=O [CBK289635] | 91.3% | –
51 | NC(=O)c1c(NC(=O)CSc2nnc(-c3ccccc3)n2CC2CCCO2)sc2c1CCC2 (centres unmarked) [CBK084789] | 110% | –
52 | O=C(NC(Cc1ccsc1)c1nccs1)C1CC2C=CC1O2 (centres unmarked) [CBK285096] | 91.9% | –
53 | CC(=O)Nc1cccc(-c2nc(-c3ccc(C#N)cc3)cnc2N)c1 [CBK113659] | 100% | –
54 | C=CCNC(=O)N1CC[C@H]2CC(=O)N(Cc3cccnc3)CC[C@H]2C1 [CBK288791] | 113% | –
55 | Cc1noc(C)c1NC(=O)c1ccc2nccnc2c1 [CBK200221] | 84.1% | –
56 | CCCCC(=O)NCCc1ccc(S(N)(=O)=O)cc1 [CBK288360] | 91.5% | –
57 | N#Cc1ccc(-c2cc(NCCc3ccncc3)ncn2)cc1 [CBK037787] | 98.1% | –
58 | CC1(C)OC(=O)C(=CNC(CCC(=O)O)C(=O)O)C(=O)O1 (centres unmarked) [CBK263510] | 97.3% | –
59 | O=C(CCC(=O)c1ccc(F)cc1)Nc1cccnc1 [CBK266901] | 89.4% | –
60 | O=C(NC(Cc1ccccc1)C(=O)O)c1ccc(C#CC2(O)CCCCC2)cc1 (centres unmarked) [CBK267702] | 93% | –
61 | O=C(CN1CCC(Cc2ccccc2)CC1)Nc1ccc(F)c(Cl)c1 [CBK126387] | 92.4% | –
62 | CC(NC(=O)N1CCc2ccccc2C1)c1ccccc1 (centres unmarked) [CBK155310] | 102% | –
63 | COc1ccc([C@@]23CCC(NC(=O)Nc4ccccc4OC(F)F)C[C@@H]2N(C)CC3)cc1OC (some centres unmarked) [CBK047547T] | 97.9% | –
64 | COc1ccc(C(=O)Nc2ccc(CC(=O)O)cc2)cc1 [CBK269736] | 95% | –
65 | CCOCCC(=O)NC1CCCc2nc(N3CCC(CO)CC3)ncc21 (centres unmarked) [CBK306624] | 92.8% | –
66 | c1coc(-c2cc3ncc4c(n3n2)CC2CCC4N2)c1 (centres unmarked) [CBK284381] | 84.7% | –
67 | O=C1CC(C(=O)Nc2ccccc2)NC(Nc2cc(Cl)cc(Cl)c2)=N1 (centres unmarked) [CBK268752] | 106% | –
68 | c1csc(CN2CCC(c3cc4nccnc4[nH]3)CC2)c1 [CBK281520] | 88.9% | –
69 | CSCCC(=O)N1CCN(C(=O)c2ccco2)CC1 [CBK144468] | 93.5% | –

Row | Compound | viability at 28.5 h, 10 µM | viability at 28.5 h, 10 µM (bulk resorufin, single well)
70 | COCCn1ccnc1C1CCN(C(=O)Cc2ccc(O)c(F)c2)CC1 [CBK306649] | 82.6% | –
71 | O=C(N/N=C/c1c(O)ccc2ccccc12)c1cnccn1 [CBK262400] | 105% | –
72 | Cc1ccnc(NS(=O)(=O)c2ccc(NC(=O)CSc3ccc(Cl)cc3)cc2)n1 [CBK265854] | 98.9% | –
73 | Cc1cc(C)c2cc(CNC3CC3)c3nn(C)c(=O)n3c2c1 [CBK283186] | 93.8% | –
74 | O=C(NC(=S)Nc1ccc2oc(-c3cncc(Br)c3)nc2c1)c1cc([N+](=O)[O-])ccc1N1CCOCC1 [CBK268864] | 118% | –
75 | Cn1c(=O)n(-c2cccc(Cl)c2)c(=O)n1C [CBK116498] | 82.2% | –
76 | CC(=O)Nc1ccc(S(=O)(=O)N2CCN(C(=O)c3ccco3)CC2)cc1 [CBK068319] | 90.5% | –
77 | Cn1nnnc1SCC(=O)Nc1cccc2nsnc12 [CBK268973] | 101% | –
78 | CNC(C)Cc1ccccc1Sc1ccccc1 (centres unmarked) [CBK027167G] | 98% | –
79 | O=C1CCCN1C(=O)CN1CCOCC1 [CBK261467] | 117% | –
80 | CN(C)c1nc(Cl)nc(N(C)C#N)n1 [CBK025922] | 87.7% | –
81 | Nc1cc(O)nc(SCC(=O)N2CCN(C(c3ccccc3)c3ccccc3)CC2)n1 [CBK268014] | 94% | –
82 | O=C(Nc1ccc(-c2nc3ccccc3o2)c(O)c1)c1ccc(-c2ccc([N+](=O)[O-])cc2)o1 [CBK263416] | 108% | –
83 | CCc1nc2cc(NC(=O)CCCn3ccnc3C)ccc2n1CC [CBK281609] | 101% | –
84 | c1cnc2[nH]c(C3CCCC3)c(CN3CCOCC3)c2c1 [CBK285337] | 77.5% | –
85 | COc1ccc(CN2CCN(C(=O)c3cccc(F)c3)CC2)c(OC)c1OC [CBK074523] | 95.5% | –
86 | COc1cccc(C(NC(=O)C2CCN(Cc3cccs3)CC2)c2cnccn2)c1 (centres unmarked) [CBK148572] | 106% | –
87 | CCCCCC(=O)Nc1c(C)cc(Br)cc1C [CBK058159] | 116% | –
88 | COc1cc(CN2CCCN(C)CC2)c([N+](=O)[O-])cc1OC [CBK261539] | 90.2% | –
89 | Cc1csc2c(N3CCC(NCCc4ccnn4C)CC3)ncnc12 [CBK307515] | 89.8% | –
